This experiment concerns NLRP3 inflammasome. The experiment in a line: IL-1β secretion assay (LPS-primed, nigericin-activated THP-1 cells, MSD readout). It is filed as cell-based. The following applies: Homo sapiens, THP-1, LPS-primed, read-out: IL1b IC50. How it is done: Monocytic THP-1 cells (DSMZ) were maintained in RPMI media (RPMI 1640 Medium (1×) +10% FBS, Eurobio CVFSVFOO—OU). Cells were then plated at 16,000 cells per well in 96-well round bottom cell culture plates (TPP, ref 92097) and maintained with RPMI and 0.1% Bovine Serum Albumin solution. Activation of the NLRP3 inflammasome requires both an NF-kB-dependent priming step and the addition of a NLRP3 activator. The priming step was induced by LPS (10 ng/mL, Sigma, ref:L4391) for 3 h at 37° C., then compound, in a 1:3.10 serial dilution series in DMSO 1:100, and the activator nigericin (Sigma Aldrich, ref: SML1779) 10 μM (final concentration) were added to the cells and co-incubated for 2 h. 50 μL supernatant was removed, and IL-1β levels were monitored using an MSD assay (Electro Chemical Luminescence Immunoassay (ECLI) according to manufacturers' instructions.
IC50 values were calculated from the plot of percentage of inhibition versus the inhibitor concentration by a logistics fit according to: y=A2+(A1−A2)/(1+(x/IC50)^p) where y is the %-inhibition at the inhibitor concentration, x. A1 is the lowest inhibition value, i.e., 0%, and A2 the maximum inhibition value, i.e., 100%. The exponent, p, is the Hill coefficient. The curve fitting was conducted with an internally developed software.

SMILES strings stand for the structures. Counter-ions that a name gives are not always drawn. A value given as a limit tells only on which side of the number the result lay.

One may read the IC50 as the point on the concentration scale where inhibition reaches its midpoint. On to `CC(C)c1nn(C(C)C(=O)N[C@@H]2CCCN(C3CC3)C2)c(=O)c2cc3ccsc3n12` (stereo partly drawn) [Example 26, N—((R)-1-cyclopropylpiperidin-3-yl)-2-(8-isopropyl-5-oxothieno[3′,2′:4,5]pyrrolo[1,2-d][1,2,4]triazin-6(5H)-yl)propanamide formate], for which the IC50 came to 1.99 µM.
The figure for `CC(C)c1nn(CC(=O)N[C@@H]2CCCN(C3CCCC3)C2)c(=O)c2cc3ccsc3n12` [Example 49, N-[(3R)-1-cyclopentyl-3-piperidyl]-2-(12-isopropyl-9-oxo-3-thia-1,10,11-triazatricyclo [6.4.0.02,6]dodeca-2(6),4,7,11-tetraen-10-yl)acetamide] is 0.027 µM; for `CC(C)c1nn(CC(=O)NC2CN(C)CC(F)(F)C2)c(=O)c2cc3cc(Cl)sc3n12` (stereo not drawn) [Example 34, 2-(2-chloro-8-isopropyl-5-oxothieno[3′,2′:4,5]pyrrolo[1,2-d][1,2,4]triazin-6(5H)-yl)-N-(5,5-difluoro-1-methylpiperidin-3-yl)acetamide 2,2,2-trifluoroacetate] it is 6.16 µM.
For the molecule `CCOC(=O)C(C)(C)N1CCCC(NC(=O)Cn2nc(C(C)C)n3c(cc4ccsc43)c2=O)C1` (stereo not drawn) [Example 80, ethyl 2-methyl-2-[3-[[2-(8-isopropyl-5-oxothieno[3′,2′:4,5]pyrrolo[1,2-d][1,2,4]triazin-6(5H)-yl)acetyl]amino]piperidin-1-yl]propanoate], the 50% inhibitory concentration (IC50) came out at 0.322 µM.
The figure for `CC(C)c1nn(CC(=O)Nc2ccc3cnn(C)c3c2)c(=O)c2cc3ccsc3n12` [Example 27, 2-(8-isopropyl-5-oxothieno[3′,2′:4,5]pyrrolo[1,2-d][1,2,4]triazin-6(5H)-yl)-N-(1-methyl-1H-indazol-6-yl)acetamide formate] is 1.03 µM.
For the molecule `CC(C)c1nn(CC(=O)N[C@@H]2CCCN(CCC#N)C2)c(=O)c2cc3ccsc3n12` [Example 77, N-[(3R)-1-(2-cyanoethyl)piperidin-3-yl]-2-(8-isopropyl-5-oxothieno[3′,2′:4,5]pyrrolo[1,2-d][1,2,4]triazin-6(5H)-yl)acetamide], the IC50 was 0.078 µM.
With `CCc1nn(CC(=O)N[C@@H]2CCCN(C[C@H](C)O)C2)c(=O)c2cc3ccsc3n12` [Example 69, 2-(12-ethyl-9-oxo-3-thia-1,10,11-triazatricyclo[6.4.0.02,6]dodeca-2(6),4,7,11-tetraen-10-yl)-N-[(3R)-1-[(2S)-2-hydroxypropyl]-3-piperidyl]acetamide], the IC50 is 3.43 µM.
The figure for `CC(C)c1nn(CC(=O)NC2CN(C3CC3)CC(F)(F)C2)c(=O)c2cc3ccsc3n12` (stereo not drawn) [Example 63, N-(1-cyclopropyl-5,5-difluoropiperidin-3-yl)-2-(8-isopropyl-5-oxothieno[3′,2′:4,5]pyrrolo [1,2-d][1,2,4]triazin-6(5H)-yl)acetamide 2,2,2-trifluoroacetate] is 1.66 µM.
The figure for `CC(C)c1nn(CC(=O)NC2CCCN(CC(F)(F)F)C2)c(=O)c2cc3ccsc3n12` (stereo not drawn) [Example 38, 2-(8-isopropyl-5-oxothieno[3′,2′:4,5]pyrrolo[1,2-d][1,2,4]triazin-6(5H)-yl)-N-(1-(2,2,2-trifluoroethyl)piperidin-3-yl)acetamide 2,2,2-trifluoroacetate] is 1.3 µM; for `CC(C)c1nn(CC(=O)Nc2ccc3scnc3c2)c(=O)c2cc3ccsc3n12` [Example 15, N-(benzo[d]thiazol-5-yl)-2-(8-isopropyl-5-oxothieno[3′,2′:4,5]pyrrolo[1,2-d][1,2,4]triazin-6(5H)-yl)acetamide] it is 2.74 µM; for `CC(C)c1nn(C(C)C(=O)N[C@@H]2CCCN(C3CCC3)C2)c(=O)c2cc3ccsc3n12` (stereo partly drawn) [Example 25, N—((R)-1-cyclobutylpiperidin-3-yl)-2-(8-isopropyl-5-oxothieno[3′,2′:4,5]pyrrolo[1,2-d][1,2,4]triazin-6(5H)-yl)propanamide formate] it is 0.768 µM.
As to `CC(C)c1nn(CC(=O)NC2CCCN(C(C)(C)C)C2)c(=O)c2cc3ccsc3n12` (stereo not drawn) [Example 37, N-(1-(tert-butyl)piperidin-3-yl)-2-(8-isopropyl-5-oxothieno[3′,2′:4,5]pyrrolo[1,2-d][1,2,4]triazin-6(5H)-yl)acetamide formate], the IC50 is 0.045 µM.
Under `CC(C)c1nn(CC(=O)Nc2ccn(C)n2)c(=O)c2cc3ccsc3n12` [Example 54, 2-(12-isopropyl-9-oxo-3-thia-1,10,11-triazatricyclo[6.4.0.02,6]dodeca-2(6),4,7,11-tetraen-10-yl)-N-(1-methylpyrazol-3-yl)acetamide] stands 1.71 µM.
The figure for `CC(C)c1nn(CC(=O)N[C@@H]2CCCN(C(C)(C)CO)C2)c(=O)c2cc3ccsc3n12` [Example 79, N-[(3R)-1-(1-hydroxy-2-methylpropan-2-yl)piperidin-3-yl]-2-(8-isopropyl-5-oxothieno [3′,2′:4,5]pyrrolo[1,2-d][1,2,4]triazin-6(5H)-yl)acetamide] is 0.029 µM; for `CC(C)c1nn(CC(=O)Nc2ccccn2)c(=O)c2cc3ccsc3n12` [Example 58, 2-(12-isopropyl-9-oxo-3-thia-1,10,11-triazatricyclo[6.4.0.02,6]dodeca-2(6),4,7,11-tetraen-10-yl)-N-(2-pyridyl)acetamide] it is 0.657 µM.
Under `CC(C)c1nn(CC(=O)NC2CCNC(=O)C2)c(=O)c2cc3ccsc3n12` (stereo not drawn) [Example 85, 2-(12-isopropyl-9-oxo-3-thia-1,10,11-triazatricyclo[6.4.0.02,6]dodeca-2(6),4,7,11-tetraen-10-yl)-N-(2-oxo-4-piperidyl)acetamide] stands greater than 10 µM.
For the molecule `CCCc1nn(CC(=O)N[C@@H]2CCCN(C3CC3)C2)c(=O)c2cc3ccsc3n12` [Example 72, N-[(3R)-1-cyclopropylpiperidin-3-yl]-2-(9-oxo-12-propyl-3-thia-1,10,11-triazatricyclo [6.4.0.02,6]dodeca-2(6),4,7,11-tetraen-10-yl)acetamide], the IC50 was greater than 10 µM.
The figure for `CC(C)c1nn(CC(=O)Nc2ccnn2C)c(=O)c2cc3ccsc3n12` [Example 53, 2-(12-isopropyl-9-oxo-3-thia-1,10,11-triazatricyclo[6.4.0.02,6]dodeca-2(6),4,7,11-tetraen-10-yl)-N-(2-methylpyrazol-3-yl)acetamide] is 1.07 µM; for `COc1cc(NC(=O)Cn2nc(C(C)C)n3c(cc4ccsc43)c2=O)ccn1` [Example 65, 2-(8-isopropyl-5-oxothieno[3′,2′:4,5]pyrrolo[1,2-d][1,2,4]triazin-6(5H)-yl)-N-(2-methoxypyridin-4-yl)acetamide] it is 3.8 µM; for `CC(C)c1nn(CC(=O)Nc2cncnc2)c(=O)c2cc3ccsc3n12` [Example 84, 2-(8-isopropyl-5-oxothieno[3′,2′:4,5]pyrrolo[1,2-d][1,2,4]triazin-6(5H)-yl)-N-pyrimidin-5-ylacetamide] it is 5.95 µM.
The figure for `CC(C)c1nn(CC(=O)N[C@@H]2CCCCN(C)C2)c(=O)c2cc3ccsc3n12` [Example 62, 2-(12-isopropyl-9-oxo-3-thia-1,10,11-triazatricyclo[6.4.0.02,6]dodeca-2(6),4,7,11-tetraen-10-yl)-N-[(3R)-1-methylazepan-3-yl]acetamide] is 0.85 µM.
On to `COCc1nn(CC(=O)N[C@@H]2CCCN(C3CCC3)C2)c(=O)c2cc3ccsc3n12` [Example 32, (R)—N-(1-cyclobutylpiperidin-3-yl)-2-(8-(methoxymethyl)-5-oxothieno [3′,2′:4,5]pyrrolo[1,2-d][1,2,4]triazin-6(5H)-yl)acetamide], for which the IC50 came out at 3.06 µM.
For `CC(C)c1nn(CC(=O)NC2CCN(C3CC3)C2)c(=O)c2cc3ccsc3n12` (stereo not drawn) [Example 86, N-(1-cyclopropylpyrrolidin-3-yl)-2-(12-isopropyl-9-oxo-3-thia-1,10,11-triazatricyclo [6.4.0.02,6]dodeca-2(6),4,7,11-tetraen-10-yl)acetamide], the IC50 is greater than 10 µM.
On to `CCc1nn(CC(=O)N[C@@H]2CCCN(C3CC3)C2)c(=O)c2cc3ccsc3n12` [Example 60, N-[(3R)-1-cyclopropyl-3-piperidyl]-2-(12-ethyl-9-oxo-3-thia-1,10,11-triazatricyclo [6.4.0.02,6]dodeca-2(6),4,7,11-tetraen-10-yl)acetamide], for which the half-maximal inhibitory concentration (IC50) amounted to 0.13 µM.
For the molecule `Cc1cc2cc3c(=O)n(CC(=O)N[C@@H]4CCCN(C)C4)nc(C(C)C)n3c2s1` [Example 9, (R)-2-(8-isopropyl-2-methyl-5-oxothieno[3′,2′:4,5]pyrrolo[1,2-d][1,2,4]triazin-6(5H)-yl)-N-(1-methylpiperidin-3-yl)acetamide 2,2,2-trifluoroacetate], the concentration for half-maximal inhibition (IC50) amounted to 9.56 µM.
Under `CC(C)c1nn(CC(=O)N[C@@H]2CCN(C)C2)c(=O)c2cc3ccsc3n12` [Example 76, N-[(3R)-1-methylpyrrolidin-3-yl]-2-(8-isopropyl-5-oxothieno[3′,2′:4,5]pyrrolo[1,2-d][1,2,4]triazin-6(5H)-yl)acetamide] stands 0.978 µM; under `CC(C)c1nn(CC(=O)N[C@@H]2CCCN(C3(C)CCCC3)C2)c(=O)c2cc3ccsc3n12` [Example 71, 2-(12-isopropyl-9-oxo-3-thia-1,10,11-triazatricyclo[6.4.0.02,6]dodeca-2(6),4,7,11-tetraen-10-yl)-N-[(3R)-1-(1-methylcyclopentyl)-3-piperidyl]acetamide], 0.07 µM.
